Reference: ChEMBL document CHEMBL1201862, “PubChem BioAssay data set” (2004)
The source made the active and inactive calls.

Tests used:
Cytochrome P450 3A4 = Cytochrome P450 3A4 (Homo sapiens, UniProt P08684);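 also: CYP3A4 tested as one member of a cytochrome P450 panel screen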
Cytochrome P450 2C19 = Cytochrome P450 2C19 (Homo sapiens, UniProt P33261); assay: Cytochrome panel assay with activity outcomes. Panel member name: p450-cyp2c19 Compounds with AC50 equal or less than 10 uM are considered active; assay type: functional
Cytochrome P450 1A2 = molecular target: T1, Cytochrome P450 1A2 (Homo sapiens, UniProt P05177);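 also: PubChem cytochrome P450 panel assay, CYP1A2 panel member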
T1 sequence (P05177 whole entry): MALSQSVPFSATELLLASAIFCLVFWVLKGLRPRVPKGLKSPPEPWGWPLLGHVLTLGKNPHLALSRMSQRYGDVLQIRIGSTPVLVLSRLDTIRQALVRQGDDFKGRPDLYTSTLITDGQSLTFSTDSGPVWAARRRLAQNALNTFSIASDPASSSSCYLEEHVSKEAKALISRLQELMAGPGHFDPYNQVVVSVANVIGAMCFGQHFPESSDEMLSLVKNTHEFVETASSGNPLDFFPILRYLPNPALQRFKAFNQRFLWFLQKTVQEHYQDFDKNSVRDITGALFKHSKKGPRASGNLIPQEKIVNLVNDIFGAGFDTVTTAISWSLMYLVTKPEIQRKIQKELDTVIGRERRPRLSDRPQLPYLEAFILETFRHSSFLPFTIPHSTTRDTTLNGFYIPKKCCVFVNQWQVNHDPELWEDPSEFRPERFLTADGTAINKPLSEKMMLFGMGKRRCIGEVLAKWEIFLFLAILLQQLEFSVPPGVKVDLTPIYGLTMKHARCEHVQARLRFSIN

Cytochrome P450 2C9 = Cytochrome P450 2C9 (Homo sapiens, UniProt P11712)
[1] = Luminescence Cell-Based Dose Retest to Confirm Inhibitors of Cancer Stem Cells. [Related pubchem assays (depositor defined):AID2717, AID2721]; assay type: functional; details: Homo sapiens
Cytochrome P450 2D6 = Cytochrome P450 2D6 (Homo sapiens, UniProt P10635);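 also: CYP2D6 member of a cytochrome P450 panel assay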
[2] = molecular target: Luciferin 4-monooxygenase (Photinus pyralis, UniProt P08659); assay: firefly luciferase enzyme inhibitors, dose response, biochemical, luminescence (AID 1891)
[3] = Luminescence Cell-Based Dose Confirmation HTS to Identify Inhibitors of Platelet Dense Granule Release. [Related pubchem assays: 1663 (Primary HTS), 1678 (Summary of Project)]; assay type: functional

Cytochrome P450 2C9, sequence (P11712 whole entry): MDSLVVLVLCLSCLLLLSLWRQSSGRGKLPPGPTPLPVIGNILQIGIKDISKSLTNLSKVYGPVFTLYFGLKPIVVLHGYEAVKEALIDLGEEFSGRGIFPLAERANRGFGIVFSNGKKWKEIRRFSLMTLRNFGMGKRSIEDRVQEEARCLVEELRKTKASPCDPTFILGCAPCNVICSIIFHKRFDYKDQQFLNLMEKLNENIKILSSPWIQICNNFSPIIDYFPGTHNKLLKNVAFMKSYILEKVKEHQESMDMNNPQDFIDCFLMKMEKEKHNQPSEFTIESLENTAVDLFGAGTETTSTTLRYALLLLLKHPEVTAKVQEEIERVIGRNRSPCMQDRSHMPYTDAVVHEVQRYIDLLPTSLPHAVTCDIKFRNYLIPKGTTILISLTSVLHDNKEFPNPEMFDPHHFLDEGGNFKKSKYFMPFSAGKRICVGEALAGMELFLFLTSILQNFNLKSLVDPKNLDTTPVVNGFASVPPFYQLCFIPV
Cytochrome P450 3A4, sequence (P08684 whole entry): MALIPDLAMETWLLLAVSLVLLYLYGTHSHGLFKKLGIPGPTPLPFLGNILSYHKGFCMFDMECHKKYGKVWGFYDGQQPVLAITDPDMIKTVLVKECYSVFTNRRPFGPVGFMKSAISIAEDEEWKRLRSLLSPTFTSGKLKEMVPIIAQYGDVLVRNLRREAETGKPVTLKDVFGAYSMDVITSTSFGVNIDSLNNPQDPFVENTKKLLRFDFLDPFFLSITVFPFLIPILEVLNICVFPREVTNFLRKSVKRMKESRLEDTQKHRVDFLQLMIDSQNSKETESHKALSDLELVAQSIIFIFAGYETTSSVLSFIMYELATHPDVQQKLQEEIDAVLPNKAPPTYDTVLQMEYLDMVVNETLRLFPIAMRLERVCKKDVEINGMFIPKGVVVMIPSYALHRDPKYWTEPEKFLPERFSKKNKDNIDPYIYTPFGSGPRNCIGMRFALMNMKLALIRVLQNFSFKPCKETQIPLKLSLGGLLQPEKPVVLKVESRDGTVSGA
Cytochrome P450 2C19, sequence (P33261 whole entry): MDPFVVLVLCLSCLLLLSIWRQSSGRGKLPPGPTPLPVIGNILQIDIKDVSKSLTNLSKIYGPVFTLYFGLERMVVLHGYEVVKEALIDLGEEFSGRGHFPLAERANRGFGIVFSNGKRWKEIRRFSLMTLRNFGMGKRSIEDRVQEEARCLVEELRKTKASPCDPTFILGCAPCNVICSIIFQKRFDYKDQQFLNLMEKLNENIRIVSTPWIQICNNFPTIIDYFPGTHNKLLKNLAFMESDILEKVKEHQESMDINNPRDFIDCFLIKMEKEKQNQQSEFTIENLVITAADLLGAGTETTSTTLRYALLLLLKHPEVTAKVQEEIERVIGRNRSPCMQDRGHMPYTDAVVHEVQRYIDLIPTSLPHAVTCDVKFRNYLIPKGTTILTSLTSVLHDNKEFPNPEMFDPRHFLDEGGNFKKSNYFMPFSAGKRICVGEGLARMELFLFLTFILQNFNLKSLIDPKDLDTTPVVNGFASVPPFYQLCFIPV
Cytochrome P450 2D6, sequence (P10635 whole entry): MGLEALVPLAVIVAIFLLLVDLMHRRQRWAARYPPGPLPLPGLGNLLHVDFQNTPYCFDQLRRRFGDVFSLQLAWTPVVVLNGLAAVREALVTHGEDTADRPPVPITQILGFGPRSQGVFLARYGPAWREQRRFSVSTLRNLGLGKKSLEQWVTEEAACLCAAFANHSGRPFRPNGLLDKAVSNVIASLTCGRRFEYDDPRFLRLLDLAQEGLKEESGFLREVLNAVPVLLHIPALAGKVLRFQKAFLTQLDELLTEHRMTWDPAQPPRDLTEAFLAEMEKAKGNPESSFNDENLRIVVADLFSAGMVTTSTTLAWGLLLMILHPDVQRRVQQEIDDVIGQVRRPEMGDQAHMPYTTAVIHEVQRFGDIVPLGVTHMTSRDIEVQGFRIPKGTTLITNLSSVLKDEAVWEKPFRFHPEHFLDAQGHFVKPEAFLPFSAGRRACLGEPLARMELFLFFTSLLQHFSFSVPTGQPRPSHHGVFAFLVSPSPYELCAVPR
Luciferin 4-monooxygenase, sequence (P08659 whole entry): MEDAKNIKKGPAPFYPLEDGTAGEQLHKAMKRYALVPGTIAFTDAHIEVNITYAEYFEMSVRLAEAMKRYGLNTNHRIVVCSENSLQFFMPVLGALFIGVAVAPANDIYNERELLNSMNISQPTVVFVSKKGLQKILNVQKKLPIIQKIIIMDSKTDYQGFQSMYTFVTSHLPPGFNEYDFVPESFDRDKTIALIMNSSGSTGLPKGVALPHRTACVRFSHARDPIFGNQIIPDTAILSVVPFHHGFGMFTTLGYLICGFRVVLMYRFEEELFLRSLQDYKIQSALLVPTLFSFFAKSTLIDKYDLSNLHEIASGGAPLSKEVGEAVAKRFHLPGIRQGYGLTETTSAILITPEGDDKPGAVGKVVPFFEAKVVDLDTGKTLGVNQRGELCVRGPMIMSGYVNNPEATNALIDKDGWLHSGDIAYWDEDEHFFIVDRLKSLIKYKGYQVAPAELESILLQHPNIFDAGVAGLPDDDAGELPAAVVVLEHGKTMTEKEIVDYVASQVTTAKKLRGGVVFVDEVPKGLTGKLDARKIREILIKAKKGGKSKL

Question: With `O=C(c1ccccc1F)c1cn(CC(=O)N2CCOCC2)c2ccccc12` as the compound, how does the AC50 (Cytochrome P450 3A4) read?
Answer: 17.8 µM (inconclusive)

Question: With `C=CCOc1ccc2cccc(/C=N/NC(=O)c3cc4cc([N+](=O)[O-])ccc4s3)c2c1` as the compound, how does the AC50 (Cytochrome P450 2C19; read-out: AC50) read?
Answer: 0.398 µM (inconclusive)

Question: And the AC50 (Cytochrome P450 3A4)?
Answer: 2.51 µM (inconclusive)

Question: Which AC50 (Cytochrome P450 2C19; read-out: AC50) does the source give for `COc1cc2c(cc1OC)CN(CC(=O)Nc1ccc3c(c1)OCO3)CC2` here?
Answer: 22.4 µM (inconclusive)

Question: And the AC50 (Cytochrome P450 1A2)?
Answer: 20 µM (inconclusive)

Question: What about the AC50 (Cytochrome P450 2C9) of the same compound?
Answer: 14.1 µM (inconclusive)

Question: For `CC(OC(=O)c1cccs1)C(=O)NC1CCCCC1C` (stereo not given), which AC50 [1] is on record?
Answer: > 195 µM (inactive)

Question: With `S=C1N(c2ccccc2)C(c2ccc(Cl)cc2)N2CCCN12` (stereo not given) as the compound, how does the AC50 (Cytochrome P450 3A4) read?
Answer: 12.6 µM (inconclusive)

Question: And the AC50 (Cytochrome P450 2C9)?
Answer: 10 µM (inconclusive)

Question: With `CCN(CC)CCNC(=O)COc1ccc(OC)cc1` [MEFEXAMIDE] as the compound, how does the AC50 (Cytochrome P450 2D6) read?
Answer: 12.6 µM (inconclusive)

Question: What about the AC50 (Cytochrome P450 1A2) of the same compound?
Answer: 12.6 µM (inconclusive)

Question: With `Cc1cccc(N(C)C(=O)c2cc3c(O)nc4ccc(C)cc4c3s2)c1` as the compound, how does the EC50 [2] read?
Answer: > 112 µM (not active)

Question: And the EC50 [3]?
Answer: 70.7 µM (active)

Question: What about the AC50 [1] of the same compound?
Answer: 0.394 µM (active)

Question: Which AC50 (Cytochrome P450 1A2) does the source give for `CCN(Cc1cc(Cl)cc(C)c1O)Cc1c(O)ccc2ccccc12` here?
Answer: 1 µM (inconclusive)

Question: And the AC50 (Cytochrome P450 2C9)?
Answer: 5.01 µM (inconclusive)

Question: With `N=C(N)N/N=C(/c1ccccc1)c1ccc(O)cc1O` as the compound, how does the AC50 (Cytochrome P450 3A4) read?
Answer: 3.98 µM (inconclusive)

Question: Which results are given for `COc1cccc(/C=N\NC(=O)C2C(=O)NCC2c2ccccc2)c1O` (stereo not given)?
Answer: AC50 (Cytochrome P450 2C19; read-out: AC50): 39.8 µM (inconclusive); AC50 (Cytochrome P450 1A2): 17.8 µM (inconclusive); AC50 (Cytochrome P450 3A4): 25.1 µM (inconclusive)

Question: With `COc1cccc(-c2sc3ccccc3c2-c2ccc(OCCN3CCOCC3)cc2)c1` as the compound, how does the AC50 [1] read?
Answer: 2.32 µM (active)

Question: For `CC1(C)CC(=O)C2=C(C1)N(Cc1ccccc1)C(=O)C2(O)C(F)(F)F` (stereo not given), which EC50 [2] is on record?
Answer: > 112 µM (not active)

Question: And the EC50 [3]?
Answer: > 112 µM (not active)

Question: And the AC50 (Cytochrome P450 3A4)?
Answer: 20 µM (inconclusive)

Question: What does the source list for `COc1ncc2nc(-c3cc(F)cc(F)c3)c(=O)n(C3CC3)c2n1`?
Answer: AC50 (Cytochrome P450 3A4): 12.6 µM (inconclusive); AC50 (Cytochrome P450 2C9): 31.6 µM (inconclusive)

Question: Which AC50 [1] does the source give for `O=C(c1cccc(S(=O)(=O)N2CCc3ccccc3C2)c1)N1CCN(c2ccc(O)cc2)CC1` here?
Answer: 4.51 µM (active)

Question: With `O=C(c1coc2ccccc2c1=O)N1CCN(c2cccc(C(F)(F)F)c2)CC1` as the compound, how does the AC50 (Cytochrome P450 3A4) read?
Answer: 22.4 µM (inconclusive)

Question: Which results are given for `CC(C)=C1C(=O)C(c2ccccc2)=C2CN3C(=O)N(CCc4ccccc4)C(=O)[C@]3(Cc3ccccc3)[C@H]21`?
Answer: AC50 (Cytochrome P450 2C19; read-out: AC50): 25.1 µM (inconclusive); AC50 (Cytochrome P450 3A4): 5.01 µM (inconclusive)

Question: For `COc1ccccc1CN1CC2(CCN(C(=O)c3ccncc3)CC2)C1`, which AC50 (Cytochrome P450 3A4) is on record?
Answer: 7.94 µM (inconclusive)

Question: For `Cc1ccc(-c2nc(C[S+]([O-])CC(=O)NCc3ccc4c(c3)OCO4)c(C)o2)cc1` (stereo not given), which AC50 [1] is on record?
Answer: > 195 µM (inactive)

Question: With `Cc1ccccc1C(=N)c1ccccc1Cc1cccc2ccccc12` as the compound, how does the AC50 (Cytochrome P450 3A4) read?
Answer: 1.58 µM (inconclusive)

Question: For `CN(N=O)c1cc(O)ccc1O` [DEPHOSTATIN], which AC50 (Cytochrome P450 2C19; read-out: AC50) is on record?
Answer: 25.1 µM (inconclusive)

Question: And the AC50 (Cytochrome P450 2D6)?
Answer: 31.6 µM (inconclusive)

Question: And the AC50 (Cytochrome P450 1A2)?
Answer: 31.6 µM (inconclusive)

Question: And the AC50 (Cytochrome P450 2C9)?
Answer: 10 µM (inconclusive)

Question: Which AC50 (Cytochrome P450 3A4) does the source give for `Cn1c(=O)c2c(nc(N3CCN(c4ccccn4)CC3)n2Cc2ccc(Cl)cc2Cl)n(C)c1=O` here?
Answer: 2.24 µM (inconclusive)

Question: With `COc1cc2c(cc1OC)C(CCN)=NCC2` as the compound, how does the AC50 (Cytochrome P450 2C19) read?
Answer: inconclusive

Question: What about the AC50 (Cytochrome P450 2D6) of the same compound?
Answer: 1.58 µM (inconclusive)

Question: What about the AC50 (Cytochrome P450 1A2) of the same compound?
Answer: 5.01 µM (inconclusive)

Question: What about the AC50 (Cytochrome P450 3A4) of the same compound?
Answer: 3.98 µM (inconclusive)

Question: For `Cc1ccc(S(=O)(=O)Nc2ccc3c(c2)CC(=O)N([C@H](C)CO)C[C@@H](C)[C@H](CN(C)Cc2ccc(-c4ccccc4)cc2)O3)cc1`, which AC50 [1] is on record?
Answer: 3.9 µM (active)

Question: What does the source list for `O=C(Nc1cccc(Cl)c1)Nn1cnnc1`?
Answer: AC50 (Cytochrome P450 1A2): 3.16 µM (inconclusive); AC50 (Cytochrome P450 3A4): 3.16 µM (inconclusive)

Question: Which AC50 [1] does the source give for `Cc1cc(C)cc(C(=O)Nc2nnc(SCC(=O)N3CCCc4ccccc43)s2)c1` here?
Answer: 4.46 µM (active)

Question: For `Cc1ccc(Cn2nnc3c(O)nc(C4CCCN(C(=O)Nc5ccc(F)cc5F)C4)nc32)cc1` (stereo not given), which AC50 (Cytochrome P450 2C19; read-out: AC50) is on record?
Answer: 39.8 µM (inconclusive)

Question: What about the AC50 (Cytochrome P450 2D6) of the same compound?
Answer: 25.1 µM (inconclusive)

Question: What about the AC50 (Cytochrome P450 1A2) of the same compound?
Answer: 31.6 µM (inconclusive)

Question: And the AC50 (Cytochrome P450 2C9)?
Answer: 22.4 µM (inconclusive)
